{"source": "patent US20230303647A1", "about": "“CYCLIC CHEMERIN-9 DERIVATIVES” (priority 2020, published 2023)", "key": {"in vitro": {"test": "in vitro", "conditions": "human, plasma", "description": "Investigation of peptide stability in blood plasma was carried out as described previously. […] Samples taken at the respective time points were added to a solution of 0.1% SDS in ACN/EtOH (1:1). After incubation at −20° C. for 20 min, the supernatant was transferred to a new tube and incubated again at −20° C. for at least 3 h. The solution was filtered by centrifugation using Costar Spin-X tubes (0.22 μm) and the filtrate was analyzed by RP-HPLC on a VariTide RPC. […] Peaks were integrated and the peak containing the intact peptide was normalized to the sample taken at t=0 min (100%)."}, "CMKLR1 [1]": {"target": "T1, CMKLR1 (Homo sapiens, UniProt Q99788)", "T1 sequence (Q99788 1-373)": "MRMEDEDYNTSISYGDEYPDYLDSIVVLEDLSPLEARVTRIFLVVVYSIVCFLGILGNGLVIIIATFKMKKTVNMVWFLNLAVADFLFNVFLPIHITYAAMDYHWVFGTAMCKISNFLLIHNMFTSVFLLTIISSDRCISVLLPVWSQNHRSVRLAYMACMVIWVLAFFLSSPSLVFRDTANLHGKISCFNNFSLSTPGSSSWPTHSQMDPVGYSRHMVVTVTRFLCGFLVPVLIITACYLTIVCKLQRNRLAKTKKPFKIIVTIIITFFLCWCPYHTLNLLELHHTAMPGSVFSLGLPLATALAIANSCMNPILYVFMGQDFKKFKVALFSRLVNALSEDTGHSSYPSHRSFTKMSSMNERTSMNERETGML", "test": "Ca2+ mobilization assay (G protein-mediated signaling)", "description": "COS-7 cells were transfected in 75 cm^2 cell culture flasks with 12 μg of the hCMKLR1_eYFP_GαΔ6qi4myr_pV2 plasmid overnight using Metafectene Pro. Transfected cells were seeded in 96 well plates (100 μL cell suspension in DMEM+10% FBS/well) and incubated overnight. The following day, the Ca^2+-mobilization was performed as described previously. […] All experiments were performed in triplicates, each experiment was repeated at least twice. Nonlinear regression was calculated using GraphPad Prism 5."}, "CMKLR1 [2]": {"target": "T1, CMKLR1", "test": "Fluorescence microscopy of CMKLR1 internalization and arrestin 3 recruitment", "assay_type": "cell-based", "set-up": "expressed in transfected cells; host or cells: HEK293", "conditions": "HEK293 cells, 1 μM peptide, 30 min stimulation", "protocol": "Ibidi 15μ-slides were coated with poly D-lysine before cell seeding. Cells were washed with DPBS prior to detachment with 1 ml trypsin/EDTA. […] The cell suspension was diluted to 140,000 cells/200 μl, which were seeded. Incubation was carried out overnight at 37° C. Afterwards, cells were transiently transfected. Plasmid DNA of hCMKLR1_eYFP_GαΔ6qi4myr_pV2 (0.9 μg) and mCherry_Arr3_pcDNA3 (0.1 μg) and 8 μl Lipofectamine were separately added to 100 μl DMEM/Ham's F12 and incubated for 10 min before unification and incubation at RT for 20 min. Incubation was carried out overnight at 37° C. […] The medium was replaced by 200 μl of OptiMEM and the to status was documented. The OptiMEM was then replaced by 200 μl of 1 μM peptide in OptiMEM. Fluorophore excitation was analyzed using different filters, depending on the emission wavelength of the fluorophore and the time of exposure was adjusted to each fluorophore individually. All images were processed identically with the AxioVision software (Carl Zeiss AG, Oberkochen, Germany).\nTo verify the arrestin-recruitment and analyze the internalization of the CMKLR1 receptor itself, HEK293 cells were used and transiently transfected with fluorescent labeled variants of the two molecules.\nFIG. 2: Internalization of CMKLR1 and arrestin 3 recruitment. HEK293 cells expressing the hCMKLR1 (green) and arrestin 3 (Arr3; red) due to transient transfection were used for the internalization studies."}, "CMKLR1 [3]": {"target": "T1, CMKLR1", "test": "BRET-based arrestin 3 recruitment assay", "conditions": "BRET, compared with chemerin-9", "description": "HEK293 cells were transiently transfected using 75 cm^2 cell culture flasks with cell monolayers (confluency of ˜80%). Plasmid DNA of the C-terminally eYFP tagged human CMKLR1 and the chimeric G protein GαΔ6qi4myr in a pVitro2 vector (7.8 μg) and Renilla-luciferase 8-tagged Arrestin 3 in pcDNA3 (0.2 μg) and 24 μl MetafectenePro were separately added to 900 μl DMEM/Ham's F12 and incubated for 10 min before unification and incubation at RT for 20 min. […] The plasmid solution was added and cells were incubated overnight before seeding. Cell seeding was carried out in white 96-well polystyrene cell culture microplates, coated with poly-D lysine. […] Afterwards, the cells were incubated overnight at 37° C. The assay was performed under unsterile conditions. […] Afterwards, the cells were stimulated with the peptides in different concentrations (10^−5 to 10^−12 M) dissolved in BRET buffer. 50 μl of the peptide dilution were used for cell stimulation. Buffer without peptide was used as a negative control. […] The values of the negative control were subtracted, non-linear regression was calculated using GraphPad Prism. […] All measurements were performed in four technical replicates, all experiments were repeated at least twice.\nThe bioluminescence resonance energy transfer (BRET) assay was used to determine the potency of cyclic chemerin variants to recruit arrestin 3 to the CMKLR1 receptor after stimulation. HEK293 cells were transiently transfected with CMKLR1 receptor fused with eYFP fluorophore and Arrestin 3 tagged with Rluc8 luciferase. The transfected cells were seeded, incubated with the luciferase substrate coelenterazine-h and stimulated with different peptide concentrations, resulting in measurable BRET signals."}}, "note": "“Also recorded” adds a separate entry of the source. Where a SMILES comes first, the peptide text is derived from it. Bridges are numbered along the chain shown (N, C = ends). [ ]: non-standard residue; d: D form. d(hCys) = N[C@H](CCS)C(=O)O", "data": [{"smiles": "C[C@H](NC(=O)[C@H](Cc1ccccc1)NC(=O)[C@H](CCC(N)=O)NC(=O)CNC(=O)[C@@H]1CCCN1C(=O)[C@H](Cc1ccccc1)NC(=O)[C@H](Cc1ccc(O)cc1)NC(=O)c1ccc(C(=O)O)c(-c2c3ccc(=[N+](C)C)cc-3oc3cc(N(C)C)ccc23)c1)C(=O)N[C@@H](Cc1ccccc1)C(=O)N[C@@H](CO)C(=O)O", "note": "[$$ 2, Tam-chemerin-9]", "values": [{"measurement": "half-life", "setting": "in vitro", "result": "< 12", "unit": "min"}]}, {"smiles": "C[C@@H]1NC(=O)[C@H](Cc2ccccc2)NC(=O)[C@H](CCC(N)=O)NC(=O)[C@H](NC(=O)[C@@H]2CCCN2C(=O)[C@H](Cc2ccccc2)NC(=O)[C@H](N)Cc2ccc(O)cc2)CCSSC[C@@H](C(=O)O)NC(=O)[C@H](Cc2c[nH]c3ccccc23)NC1=O", "note": "[$$ 15, [y1,x4,W8,C9]-chemerin-9] (H-[dY]FP[d(hCys)]QFAWC-OH; disulfide 4-9)", "values": [{"measurement": "G protein signaling activity (in words)", "setting": "CMKLR1 [1]; Ca2+ mobilization assay", "result": "significantly decreased activity"}, {"measurement": "EC50", "setting": "CMKLR1 [1]; pEC50 ± SEM, COS-7 cells transfected with hCMKLR1_eYFP_GαΔ6qi4myr, normalized to chemerin-9", "result": 207, "unit": "nM"}, {"measurement": "arrestin 3 recruitment and internalization of the CMKLR1", "setting": "CMKLR1 [2]", "result": "neither internalization of the hCMKLR1 nor arrestin 3 recruitment could be detected"}, {"measurement": "arrestin 3 recruitment to the CMKLR1 (in words)", "setting": "CMKLR1 [3]", "result": "no longer able to induce arrestin 3-recruitment; also recorded: completely abolishes arrestin recruitment"}]}]}
